According to ChEMBL document CHEMBL1153899, “Discovery of benzothiazole derivatives as efficacious and enterocyte-specific MTP inhibitors” (Bioorg Med Chem Lett, 2009):
Activity calls are given as the source filed them. The calls are words filed in the database; no cut-off is given here.

Columns and labels:
[1] = tested on: Mus musculus; assay: Increase in peptide YY level in 3-day high fat diet fed C57BL/6 mouse at 10 mg/kg, po daily for 3 days; assay type: functional, organism-based; parameters: dose 10 mg/kg
[2] = tested on: Mus musculus; assay: Decrease in plasma triglyceride level in […] C57BL/6 mouse at 10 mg/kg, po daily for 3 days measured after 6 hrs; assay type: functional
[3] = tested on: HepG2; assay: Inhibition of apoB secretion in human HepG2 cells after 40 hrs by ELISA; assay type: functional, cell-based; conditions: HepG2, 40 h
[4] = Inhibition of MTP from dog liver microsomes by scintillation counting; parameters: species or system Canis lupus familiaris, Microsome
[5] = tested on: Mus musculus; assay: Decrease in total food intake in 3-day high fat diet fed C57BL/6 mouse at 10 mg/kg, po daily for 3 days; assay type: functional
[6] = tested on: Mus musculus; assay: Decrease in body weight in […] at 10 mg/kg, po daily for 3 days; assay type: functional, C57BL/6

IC50 [3] [µM]	IC50 [4] [µM]	Compound	Activity [1]	Activity [2]	Activity [5]	Activity [6]
0.0024	0.0079	COc1cccc(C(=O)Nc2ccc3nc(C(=O)N[C@H](C(=O)N(C)Cc4ccc(F)cc4)c4ccccc4)sc3c2)c1-c1ccc(C(C)(C)C)cc1	Active	Active	Active	Active
0.0237	0.0148	CN(Cc1ccc(F)cc1)C(=O)[C@@H](NC(=O)c1nc2ccc(NC(=O)c3ccccc3-c3cn4ccsc4n3)cc2s1)c1ccccc1	inactive	inactive	inactive	inactive
